Like-named read-outs stand apart in the source and are kept apart here.
Test system: murine fibroblasts (NIH3T3) over-expressing human IGF-1 receptor
Experiment: Inhibition of IGF-stimulated cell proliferation (BrdU incorporation), Test (c)
Type: cell-based
Protocol: The construction of murine fibroblasts (NIH3T3) over-expressing human IGF-1 receptor has been described by Lammers et al (EMBO J, 8, 1369-1375, 1989). These cells show a proliferative response to IGF-I which can be measured by BrdU incorporation into newly synthesised DNA. Compound potency was determined as causing inhibition of the IGF-stimulated proliferation in the following assay:
Compounds are initially dissolved in DMSO to 10 mM, followed by dilutions in DMEM+1% FCS+glutamine to give a range from […] in 1-0.00045% DMSO final concentration in assay well.
Exponentially growing NIH3T3/IGFR cells were harvested and seeded in complete growth medium into a flat-bottomed 96 well tissue culture grade plate (Costar 3525) at 1.2×10^4 cells per well in a volume of 100 μl.
Growth medium was carefully removed from each well using a multi-channel pipette. Wells were carefully rinsed three times with 200 μl with HBSS. […] of starvation medium was added to each well and the plate was re-incubated for 24 hours.
50 μl of a 4× concentrate of test compound was added to appropriate wells. Cells were incubated for 30 minutes with compound alone before the addition of IGF. […]
The incorporation of BrdU in the cells (after a 4 h incorporation period) was assessed using the BrdU Cell Proliferation Elisa according to the manufacturer's protocol.

SMILES	IC50 [µM]	IC50 (Mus musculus) [µM]
Cc1cc(Nc2nc(N3C[C@H](O)C[C@H]3c3cc(-c4ccccn4)no3)ncc2Cl)n[nH]1 [Example 3, 5-Chloro-2-{(2S4R)-4-hydroxy-2-[3-(pyrid-2-yl)isoxazol-5-yl]pyrrolidin-1-yl}-4-(5-methyl-1H-pyrazol-3-ylamino)pyrimidine]	0.8	–
Cc1cc(Nc2nc(N3C[C@@H](O)C[C@H]3c3cc(-c4ccccn4)no3)ncc2Cl)n[nH]1 [Example 4, 5-Chloro-2-[(2S,4S)-4-hydroxy-2-[3-(pyrid-2-yl)isoxazol-5-yl]pyrrolidin-1-yl]-4-(5-methyl-1H-pyrazol-3-ylamino)pyrimidine]	–	0.93
